Results on 96 compounds are retold here after PubChem BioAssay AID493085 (Broad Institute, 2011).

Results filed as inconclusive are left out. Activity calls are given as the source filed them.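 Rule for the calls: active = falling-signal curve with half-maximal concentration at or below ten times the top tested dose; inconclusive = flat fit at 30 to 70% inhibition, or poor fit; inactive = signal rise, flat within 30%, or potency beyond limit.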 Some results are limits rather than exact numbers.

Usually AC50 stands for the concentration at which the activity in the assay is half-maximal.

The test system of this experiment is NIH3T3 R4 HSE-GFP/Tet-RFP reporter, fluorescence, 48 h. As to the kind of experiment: Tet-On RFP internal-standard readout, HSF1 screen, dose response, cell-based, NIH3T3 R4, HSE-GFP and Tet-On RFP, cherry-pick, set 3 (AID 493085).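 Note: cells heat shocked 2 h at 42 °C with doxycycline to induce reporters.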
`Cc1ccc(-c2cn(-c3ccccc3)c(=S)[nH]2)cc1C`: the AC50 was > 19.5 µM (inactive).
With `CCN(CC)S(=O)(=O)c1ccc2c(c1)c(=O)c(C(=O)NCc1ccco1)cn2C` the figure was > 19.5 µM (inactive); with `COc1ccc(OC)c2c1C(=O)C(Cl)=C(Cl)C2=O`, 2.29 µM.
With `C#CC(=O)N(c1cc(OC)ccc1OC)C(C(=O)NC1CCCC1)c1cccs1` (stereo unspecified), the AC50 was 5.39 µM.
Consider `NNC(=O)c1ccc(N2CCc3ccccc32)c([N+](=O)[O-])c1`, for which the AC50 was > 19.5 µM (inactive).
With `CS(=O)(=O)c1nc(-c2ccccc2)cc(C(F)(F)F)n1` the figure was 1.81 µM; with `Cc1nc2c(-c3ccccc3)c(C)[nH]n2c(=O)c1Cl`, > 19.5 µM (inactive).
As for `CC(C)(C)C(=O)NC(=S)NNC(=O)c1sc2ccccc2c1Cl`, the AC50 was > 19.5 µM (inactive).
Regarding `O=C(Nc1nnc(S(=O)(=O)N2CCCCCC2)s1)c1cccc(Br)c1`, the AC50 is 0.889 µM.
The same measure for `CCCCCCc1cc2cc(S(=O)(=O)c3ccc(F)c(Cl)c3)c(=O)oc2cc1O`: 1.52 µM; for `Cc1cccc(C(=O)NC(=S)N2CCN(c3ccc([N+](=O)[O-])cc3)CC2)c1`: > 19.5 µM (inactive); for `O=C(CNC(=S)N(CCCN1CCOCC1)Cc1cccs1)NCc1ccccc1Cl`: > 19.5 µM (inactive).
As to `CCOc1ccc(NCC(=O)c2ccc(C)cc2)cc1`, the AC50 is 12.7 µM.
The same measure for `CCS(=O)(=O)c1ncc(Cl)c(C(=O)Nc2ccc(S(=O)(=O)N3CCC(C)CC3)cc2)n1`: 16.2 µM; for `Cc1ccc(OCC(=O)c2cc(C)n(-c3ccccc3)c2C)c([N+](=O)[O-])n1`: 8.65 µM.
Take `CCc1ccc(C(=O)Cn2ncc(Cl)c(Cl)c2=O)cc1`: the AC50 is 18.6 µM.
With `COc1ccc(C[C@H]2NC[C@H](O)[C@H]2OC(C)=O)cc1` the figure was 0.171 µM.
Take `CCOc1cc(C(=O)NCc2ccccc2)ccc1OCC(=O)N1CCOCC1`: the AC50 is > 19.5 µM (inactive).
With `CC(C)c1ccc(-c2nc3ccccc3s2)cc1` the figure was > 19.5 µM (inactive); with `O=[N+]([O-])c1cnc(Sc2ccncn2)s1`, 13.1 µM.
With `Cc1sc2ncnc(NCCc3ccc(S(N)(=O)=O)cc3)c2c1C` the figure was 0.185 µM; with `CC12CCC(C/C1=N\N=C1\NC(=O)/C(=C\c3ccc(Cl)cc3)S1)C2(C)C` (stereo unspecified), 1.82 µM; with `Cc1cc(Nc2ccc3c(c2)OCCO3)c2cc(Cl)ccc2n1`, > 19.5 µM (inactive).
With `O=C(CCl)Nc1cc(SCC(O)CO)cc([N+](=O)[O-])c1` (stereo unspecified), the AC50 is 13.7 µM.
Consider `O=c1c(Cl)c(Cl)cnn1-c1ccccc1`, for which the AC50 was 14.4 µM.
For the compound `Cc1ccc(C)c(NC(=O)CCc2nnc3ccc(NCc4ccco4)nn23)c1`, the AC50 is > 19.5 µM (inactive).
For the compound `Oc1ccc(CN2CCCc3ccccc32)c2cccnc12`, the concentration at half-maximal activity (AC50) was 4.67 µM.
Consider `COc1cccc(CN(C)CC(=O)Nc2cccc(C(F)(F)F)c2)c1OC`, for which the AC50 is 18.8 µM.
Take `Fc1ccc(-n2cc(-c3ccccc3)c3c(N4CCOCC4)ncnc32)cc1`: the AC50 is 6.34 µM.
Consider `COc1cc2c(cc1OC)C(c1ccc(-c3ccc(Cl)c(Cl)c3)o1)=NCC2`, for which the AC50 was 18.8 µM.
Consider `O=c1cc(-c2ccccc2)c2ccc(O)cc2o1`, for which the AC50 is > 19.5 µM (inactive).
With `O=C1C(Cl)=C(Nc2ccc3cn[nH]c3c2)C(=O)c2ccccc21`, the AC50 was 5.26 µM.
Consider `O=[N+]([O-])c1ccc(S(=O)(=O)c2ccccc2)nc1`, for which the AC50 was 19.3 µM.
With `CCCCn1c(C(C)NC(=O)CC)nc2ccccc21` (stereo unspecified) the figure was > 19.5 µM (inactive); with `Cc1nc(NCc2ccco2)c2c(C)c(C)sc2n1`, 0.435 µM.
With `CCc1cc(C)cc(OCCNC(=O)c2cncc(Br)c2)c1` the figure was > 19.5 µM (inactive).
With `CCCCCn1c(=O)c(C(=O)Nc2ccccn2)c(O)c2ccccc21`, the AC50 was 1.4 µM.
With `Cn1c(-c2nonc2N)nc2ccccc21` the figure was > 19.5 µM (inactive); with `Cc1ccc(S(=O)(=O)N2CCN(CC(=O)N/N=C\c3ccncc3)CC2)cc1`, > 19.5 µM (inactive).
For `COc1ccc(N(Cc2cc3cc(OC)ccc3[nH]c2=O)S(=O)(=O)c2ccc(NC(C)=O)cc2)cc1`, the AC50 is 14.3 µM.
With `CC(C)(C)c1ccc2c(c1)OC(C(=O)N/N=C\c1ccc[nH]1)CO2` (stereo unspecified) the figure was 0.182 µM.
Consider `O=C1C(Nc2ccccc2)=C/C(=N/S(=O)(=O)c2cccs2)c2ccccc21`, for which the concentration at half-maximal activity (AC50) was 9.58 µM.
Regarding `CCOC(=O)/C(=C\c1ccc([N+](=O)[O-])cc1)C(=O)c1cc(C(C)=O)c(Nc2ccccc2)s1`, the AC50 was 6.97 µM.
With `Cc1ccccc1NC(=O)COC(=O)c1ccc(S(C)(=O)=O)c([N+](=O)[O-])c1` the figure was 18.3 µM; with `COc1ccccc1-c1cc(C(F)(F)F)nc(S(=O)(=O)CCCC(=O)NCc2ccc(F)cc2)n1`, 5.34 µM.
With `Nc1nc(F)nc2c1ncn2[C@@H]1O[C@H](CO)[C@@H](O)[C@H]1O` the figure was 0.981 µM; with `CCCC(=O)N1CCN(c2ccc(NC(=O)c3cc4ccccc4o3)cc2Cl)CC1`, 13.1 µM; with `O=C(O)c1ccc(NC2=C(Cl)C(=O)c3ccccc3C2=O)cc1`, 18.6 µM.
With `COc1ccc2c(c1)c(CC(=O)Nc1nnc(C3CC3)s1)c(C)n2C(=O)c1ccc(Cl)cc1` the figure was 0.284 µM; with `CCN1C/C(=C/c2ccc(OC)c(O)c2)C(=O)/C(=C/c2ccc(OC)c(O)c2)C1`, 1.8 µM.
As to `O=C(CCl)N(c1ccccc1)C1CCCCC1`, the concentration at half-maximal activity (AC50) was 4.93 µM.
Take `N#CCc1nn(-c2ccccc2)c2ncnc(N)c12`: the AC50 was > 19.5 µM (inactive).
As to `CCSc1nnc(NC(=O)C(Cc2ccccc2)n2cccc2)s1` (stereo unspecified), the AC50 was > 19.5 µM (inactive).
Take `NC(=O)c1cc2ccncc2c2ccccc12`: the AC50 is 0.805 µM.
The same measure for `Nc1ncnc2c1ccn2[C@@H]1O[C@H](CO)[C@@H](O)[C@H]1O`: 3.17 µM.
As to `CCC(Sc1nc(C)cc(C)n1)C(=O)NC1=NN=C(c2ccc(C)cc2)CS1` (stereo unspecified), the AC50 was 14.8 µM.
With `O=C(NCCN1CCCCC1)Nc1ccccc1Cl` the figure was > 19.5 µM (inactive).
`COc1ccc(CNC(=O)c2cnc3scc(C)n3c2=O)cc1`: the AC50 was > 19.5 µM (inactive).
With `Cc1cc([N+](=O)[O-])c2ccccc2[n+]1[O-]` the figure was 15.6 µM.
With `COc1ccccc1NC(=O)c1nc(S(=O)(=O)Cc2ccccc2)ncc1Cl` the figure was 4.02 µM; with `c1ccc(OCCSc2nc3ccccc3o2)cc1`, > 19.5 µM (inactive); with `O=C(CCl)Nc1ccc(Sc2ccc(NC(=O)CCl)cc2)cc1`, 18.3 µM.
With `CCOC(=O)COc1ccccc1/C=C\[N+](=O)[O-]` the figure was 5.63 µM; with `COc1ccc(C(=O)c2c(C(F)(F)F)oc3c2C(=O)c2ccccc2C3=O)cc1`, 2.89 µM.
In the case of `CC1(C)C[C@H]2C=C(C=O)[C@]3(C=O)C[C@]3(C)[C@H]2C1`, the AC50 was 17.9 µM.
In the case of `Cc1nc2c(-c3ccccc3)cnn2c(N)c1-c1ccccc1`, the AC50 was > 19.5 µM (inactive).
With `OCCCNc1nccc(-c2cc(Nc3cccc(Cl)c3)ncn2)n1` the figure was 0.354 µM; with `Cc1oc2c(c1C(=O)NCc1cccnc1)C(=O)c1ccccc1C2=O`, 0.891 µM; with `CCc1ccccc1NC(=O)CSc1nnc(-c2ccncc2)o1`, > 19.5 µM (inactive).
With `O=C(N/N=C/c1ccc[nH]1)c1ccc(COc2cccc3cccnc23)cc1`, the AC50 is 0.821 µM.
As to `O=C(C#Cc1ccccc1)c1ccco1`, the AC50 is 4.11 µM.
For `Cc1cc(C)c2nc(C(F)(F)F)c(C#N)c(N)c2c1`, the AC50 is 1.54 µM.
The same measure for `Cn1c(=O)c([N+](=O)[O-])c(Cl)c2ccccc21`: 11.4 µM; for `CCCS(=O)(=O)N1CCc2cc(OC)c(OC)cc2C1`: > 10 µM (inactive).
The same measure for `CCOC(=O)c1c(N)sc2c(O)c(Br)ccc12`: > 19.5 µM (inactive); for `CC(Nc1ncnc2sccc12)c1ccccc1` (stereo unspecified): 0.349 µM.
On to `O=c1c2ccc(Cl)cc2nc(-c2cccc(C(F)(F)F)c2)n1O`, for which the AC50 is 18.2 µM.
For the compound `Cc1[nH]c2ccccc2c1/C=C/c1nc2ccccc2c(=O)n1-c1cccc([N+](=O)[O-])c1`, the AC50 is > 19.5 µM (inactive).
With `CC(=O)c1ccc(NC(=O)C2CCN(S(=O)(=O)c3cccc4cccnc34)CC2)cc1` the figure was > 19.5 µM (inactive).
With `C(=N\NC1=Nc2cccc3cccc1c23)/c1ccccn1` the figure was 0.95 µM; with `CC[C@H]1CN2CCc3cc(OC)c(OC)cc3[C@@H]2C[C@@H]1C[C@H]1NCCc2cc(OC)c(OC)cc21`, 0.549 µM; with `CN=C1S/C(=C\c2cc(C)n(-c3ccccc3F)c2C)C(=O)N1C`, 16.5 µM.
The same measure for `CCOC(=O)c1sc(NC(=O)CSc2n[nH]c(-c3ccccc3)n2)c(C#N)c1C`: 14.6 µM; for `CCc1ccc(C2=NNC(=Nc3cccc(S(=O)(=O)N(C)C)c3)SC2)cc1`: 2 µM.
Consider `CCOC(=O)N=Nc1c2ccccc2c2nc3no[nH]c3nc12`, for which the AC50 is 1.91 µM.
As to `Cc1nn(-c2ccccc2)c(Cl)c1C(=O)N1CCN(c2ncnc3c2cnn3-c2ccccc2)CC1`, the AC50 was 6.77 µM.
Turning to `c1ccc2c(c1)OCC(c1csc3ncnc(N4CCOCC4)c13)O2` (stereo unspecified), the AC50 is 16.6 µM.
For the compound `Cc1ccc(S(=O)(=O)c2ncccc2[N+](=O)[O-])cc1`, the AC50 is 16.5 µM.
With `CCn1c(SCC(=O)Nc2oc(C)c3c(C)n[nH]c(=O)c23)nc2sc(C)c(C)c2c1=O` the figure was > 19.5 µM (inactive); with `CC1=NNC(=O)/C1=C\c1cn(-c2ccccc2)nc1-c1ccc(Cl)cc1`, 17.4 µM.
The same measure for `CCOC(=O)c1c(C)[nH]c2c1-c1ccccc1C(=O)C2=O`: 1.07 µM; for `CSc1ccc(CN(C)Cc2cc(=O)oc3c(C)c(C)ccc23)cc1`: 17.1 µM.
The same measure for `COc1cccc(-c2nnc3n2N=C(C(C)(C)C)CS3)c1`: 0.484 µM.
As for `Cn1c(C(C#N)C(=O)c2sc3ccccc3c2Cl)nc2ccccc21` (stereo unspecified), the AC50 is > 19.5 µM (inactive).
For the compound `COc1ccc(NCc2nnc(SCC(=O)Nc3cc(C(F)(F)F)ccc3Cl)o2)cc1`, the AC50 is > 19.5 µM (inactive).
With `COC(=O)/C(=C1/Oc2cc(C)oc(=O)c2S1)C(F)(F)F` the figure was 1.5 µM.
